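In this assay, cells in 96-well plates receive the compound at five concentrations for 48 hours. Endpoints are linearly interpolated between the surrounding concentrations. GI50: concentration for 50% inhibition of growth. Definition used: TGI = concentration required for complete inhibition of growth.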
Columns and labels:
Assay in all cases: NCI-60 cell line screen, 48 h
SNB-19 CNS = tested on: SNB-19 CNS
NCI-H226 lung = tested on: NCI-H226 lung
MCF7 breast = tested on: MCF7 breast
OVCAR-3 ovarian = tested on: OVCAR-3 ovarian
IGROV1 ovarian = tested on: IGROV1 ovarian
SK-OV-3 ovarian = tested on: SK-OV-3 ovarian
TK-10 renal = tested on: TK-10 renal
MDA-MB-435 = tested on: MDA-MB-435
DU-145 prostate = tested on: DU-145 prostate
SF-268 CNS = tested on: SF-268 CNS

## Cn1c(N)cc(=O)nc1N
SNB-19 CNS
  TGI: > 100 µM
NCI-H226 lung
  TGI: > 100 µM
MCF7 breast
  TGI: > 100 µM
OVCAR-3 ovarian
  TGI: > 100000 nM
IGROV1 ovarian
  TGI: > 100 µM
SK-OV-3 ovarian
  TGI: > 100 µM
TK-10 renal
  TGI: > 100 µM
MDA-MB-435
  TGI: > 100 µM
DU-145 prostate
  TGI: > 100 µM
SF-268 CNS
  TGI: > 100 µM

## COC(=O)c1cc2c([nH]c3ccccc32)c(-c2nc3cc(N(S(=O)(=O)c4ccc(C)cc4)S(=O)(=O)c4ccc(C)cc4)c(OC)cc3cc2CO)n1
SNB-19 CNS
  GI50: 75 µM
  TGI: > 100 µM
NCI-H226 lung
  GI50: > 100 µM
  TGI: > 100 µM
MCF7 breast
  GI50: > 100000 nM
  TGI: > 100 µM
OVCAR-3 ovarian
  GI50: > 100000 nM
  TGI: > 100000 nM
IGROV1 ovarian
  GI50: > 100000 nM
  TGI: > 100 µM
SK-OV-3 ovarian
  GI50: > 100000 nM
  TGI: > 100 µM
TK-10 renal
  GI50: > 100000 nM
  TGI: > 100 µM
MDA-MB-435
  GI50: > 100000 nM
  TGI: > 100 µM
DU-145 prostate
  GI50: > 100000 nM
  TGI: > 100 µM
SF-268 CNS
  GI50: > 100000 nM
  TGI: > 100 µM

## O=C(CN1C(=O)c2ccccc2C1=O)NC1(C(=O)O)CCCC1
SNB-19 CNS
  TGI: > 100 µM
NCI-H226 lung
  TGI: > 100 µM
MCF7 breast
  TGI: > 100 µM
OVCAR-3 ovarian
  TGI: > 100000 nM
IGROV1 ovarian
  TGI: > 100 µM
SK-OV-3 ovarian
  TGI: > 100 µM
TK-10 renal
  TGI: > 100 µM
MDA-MB-435
  TGI: > 100 µM
DU-145 prostate
  TGI: > 100 µM
SF-268 CNS
  TGI: > 100 µM

## CCOC(=O)C(Cc1ccc(N(CCCl)CCCl)cc1)NC(=O)C(CC(C)C)NC(C)=O (stereo not given)
SNB-19 CNS
  GI50: 3.55 µM
  TGI: 16.7 µM
NCI-H226 lung
  GI50: 3.79 µM
  TGI: 10.7 µM
MCF7 breast
  GI50: 699 nM
  TGI: 15.4 µM
OVCAR-3 ovarian
  GI50: 332 nM
  TGI: 1400 nM
IGROV1 ovarian
  GI50: 1520 nM
  TGI: 4.72 µM
SK-OV-3 ovarian
  GI50: 1380 nM
  TGI: 4.94 µM
TK-10 renal
  GI50: 1980 nM
  TGI: 4.87 µM
MDA-MB-435
  GI50: 1430 nM
  TGI: 3.25 µM
DU-145 prostate
  GI50: 472 nM
  TGI: 4.41 µM
SF-268 CNS
  GI50: 1090 nM
  TGI: 5.51 µM

## CC1SC(c2cccc(Oc3ccccc3)c2)N(CCc2cccs2)C1=O (stereo not given)
SNB-19 CNS
  GI50: 1.64 µM
  TGI: 9.01 µM
NCI-H226 lung
  GI50: 1.28 µM
  TGI: 2.94 µM
MCF7 breast
  GI50: 551 nM
  TGI: 5.07 µM
OVCAR-3 ovarian
  GI50: 1080 nM
  TGI: 2300 nM
IGROV1 ovarian
  GI50: 1070 nM
  TGI: 3.33 µM
SK-OV-3 ovarian
  GI50: 1920 nM
  TGI: 5.32 µM
TK-10 renal
  GI50: 1590 nM
  TGI: 4.28 µM
MDA-MB-435
  GI50: 1190 nM
  TGI: 3.14 µM
DU-145 prostate
  GI50: 1600 nM
  TGI: 3.88 µM
SF-268 CNS
  GI50: 1180 nM
  TGI: 3.6 µM

From PubChem BioAssay (NCI)
